The results in this text go back to ChEMBL document CHEMBL1134814, “New anti-MRSA cephalosporins with a basic aminopyridine at the C-7 position” (2001).

Each structure is given as a SMILES string. ≈ marks a conversion by molar mass, not a printed value.

Holding throughout (type): functional
For experiment [1], the system named is Staphylococcus aureus. The experiment in a line: In vitro inhibition of growth of methicillin-resistant Staphylococcus aureus MRSA 76 (clinical isolates).
In experiment [2] the test system is Staphylococcus aureus. The experiment in a line: In vitro inhibition of growth of methicillin-resistant Staphylococcus aureus MRSA spain 356 (clinical isolates).
The subject of experiment [3] is Staphylococcus aureus. The experiment in a line: In vitro inhibition of growth of methicillin-resistant Staphylococcus aureus MRSA ATCC 335893 (clinical isolates).

The MIC is the smallest concentration in the dilution series that meets the test's criterion for growth inhibition. Regarding `NCCSCc1nc(N)sc1SC1=C(C(=O)O)N2C(=O)[C@@H](NC(=O)/C(=N\O)c3cccc(N)n3)[C@H]2SC1`, the minimum inhibitory concentration (MIC) against Staphylococcus aureus [1] is 8 µg/mL (≈ 13.7 µM); in the experiment with Staphylococcus aureus [2] it was 4 µg/mL (≈ 6.86 µM); against Staphylococcus aureus [3] it was 2 µg/mL (≈ 3.43 µM).
Turning to `NCCSCc1csc(SC2=C(C(=O)O)N3C(=O)[C@@H](NC(=O)/C(=N\O)c4cccc(N)n4)[C@H]3SC2)n1`, the values for the MIC against Staphylococcus aureus [1], in the experiment on Staphylococcus aureus [2] and with Staphylococcus aureus [3] were 2 µg/mL (≈ 3.52 µM), 2 µg/mL (≈ 3.52 µM) and 1 µg/mL (≈ 1.76 µM), respectively.
With `NCCSCc1ccccc1SC1=C(C(=O)O)N2C(=O)[C@@H](NC(=O)/C(=N\O)c3cccc(N)n3)[C@H]2SC1`, the MIC against Staphylococcus aureus [1], with Staphylococcus aureus [2] and in the experiment on Staphylococcus aureus [3] was 1 µg/mL (≈ 1.78 µM) in each case.
For the molecule `NCCSCc1ncsc1SC1=C(C(=O)O)N2C(=O)[C@@H](NC(=O)/C(=N\O)c3cccc(N)n3)[C@H]2SC1`, the MIC amounted to 2 µg/mL (≈ 3.52 µM) against Staphylococcus aureus [1], 2 µg/mL (≈ 3.52 µM) in the experiment on Staphylococcus aureus [2] and 1 µg/mL (≈ 1.76 µM) in the experiment on Staphylococcus aureus [3].
With `NCCSCc1cnccc1SC1=C(C(=O)O)N2C(=O)[C@@H](NC(=O)/C(=N\O)c3nc(N)sc3Cl)[C@H]2SC1`, the MIC in the experiment with Staphylococcus aureus [1], in the experiment with Staphylococcus aureus [2] and against Staphylococcus aureus [3] was 1 µg/mL (≈ 1.66 µM) each time.
On to `COc1nc(CSCCN)c(SC2=C(C(=O)O)N3C(=O)[C@@H](NC(=O)/C(=N\O)c4cccc(N)n4)[C@H]3SC2)s1`, for which the MIC in the experiment on Staphylococcus aureus [1], with Staphylococcus aureus [2] and with Staphylococcus aureus [3] was 4 µg/mL (≈ 6.69 µM) throughout.
As for `NCCSCc1nc(SCCN)sc1SC1=C(C(=O)O)N2C(=O)[C@@H](NC(=O)/C(=N\O)c3cccc(N)n3)[C@H]2SC1`, the MIC in the experiment with Staphylococcus aureus [1], in the experiment with Staphylococcus aureus [2] and in the experiment with Staphylococcus aureus [3] was 1 µg/mL (≈ 1.56 µM) each time.
Regarding `NCCSCc1cnccc1SC1=C(C(=O)O)N2C(=O)[C@@H](NC(=O)/C(=N\O)c3cccc(N)n3)[C@H]2SC1`, the results for the MIC with Staphylococcus aureus [1], against Staphylococcus aureus [2] and against Staphylococcus aureus [3] were 1 µg/mL (≈ 1.78 µM), 2 µg/mL (≈ 3.56 µM) and 2 µg/mL (≈ 3.56 µM), respectively.
As for `Cc1nc(CSCCN)c(SC2=C(C(=O)O)N3C(=O)[C@@H](NC(=O)/C(=N\O)c4cccc(N)n4)[C@H]3SC2)s1`, the MIC against Staphylococcus aureus [1], with Staphylococcus aureus [2] and in the experiment with Staphylococcus aureus [3] was 2 µg/mL (≈ 3.44 µM) in each case.
For the molecule `NCCSCc1nc(Cl)sc1SC1=C(C(=O)O)N2C(=O)[C@@H](NC(=O)/C(=N\O)c3cccc(N)n3)[C@H]2SC1`, the MIC came to 2 µg/mL (≈ 3.32 µM) with Staphylococcus aureus [1], 1 µg/mL (≈ 1.66 µM) against Staphylococcus aureus [2] and 1 µg/mL (≈ 1.66 µM) in the experiment with Staphylococcus aureus [3].
`NCCSc1cncc(SC2=C(C(=O)O)N3C(=O)[C@@H](NC(=O)/C(=N\O)c4cccc(N)n4)[C@H]3SC2)n1`: the MIC in the experiment with Staphylococcus aureus [1] came out at 16 µg/mL (≈ 29.2 µM); in the experiment on Staphylococcus aureus [2], 16 µg/mL (≈ 29.2 µM); with Staphylococcus aureus [3] it was 8 µg/mL (≈ 14.6 µM).
On to `NCCCSc1nsc(SC2=C(C(=O)O)N3C(=O)[C@@H](NC(=O)/C(=N\O)c4cccc(N)n4)[C@H]3SC2)n1`, for which the MIC in the experiment on Staphylococcus aureus [1], with Staphylococcus aureus [2] and in the experiment with Staphylococcus aureus [3] was 2 µg/mL (≈ 3.52 µM) in each case.
`NCCSc1nsc(SC2=C(C(=O)O)N3C(=O)[C@@H](NC(=O)/C(=N\O)c4cccc(N)n4)[C@H]3SC2)n1`: the MIC against Staphylococcus aureus [1], against Staphylococcus aureus [2] and against Staphylococcus aureus [3] was 2 µg/mL (≈ 3.61 µM) throughout.
As for `NCCSCc1nnsc1SC1=C(C(=O)O)N2C(=O)[C@@H](NC(=O)/C(=N\O)c3cccc(N)n3)[C@H]2SC1`, the MIC against Staphylococcus aureus [1], against Staphylococcus aureus [2] and in the experiment with Staphylococcus aureus [3] was 1 µg/mL (≈ 1.76 µM) in each case.
For the molecule `NCCSc1nccnc1SC1=C(C(=O)O)N2C(=O)[C@@H](NC(=O)/C(=N\O)c3cccc(N)n3)[C@H]2SC1`, the MIC in the experiment on Staphylococcus aureus [1], against Staphylococcus aureus [2] and in the experiment on Staphylococcus aureus [3] was 2 µg/mL (≈ 3.65 µM) throughout.
For `NCCSCc1nnsc1SC1=C(C(=O)O)N2C(=O)[C@@H](NC(=O)/C(=N\O)c3csc(N)n3)[C@H]2SC1`, the minimal inhibitory concentration (MIC) against Staphylococcus aureus [1], in the experiment on Staphylococcus aureus [2] and against Staphylococcus aureus [3] was 1 µg/mL (≈ 1.74 µM) throughout.
On to `NCCSCc1nsc(SC2=C(C(=O)O)N3C(=O)[C@@H](NC(=O)/C(=N\O)c4cccc(N)n4)[C@H]3SC2)n1`, for which the MIC in the experiment with Staphylococcus aureus [1] was 4 µg/mL (≈ 7.03 µM); in the experiment with Staphylococcus aureus [2], 4 µg/mL (≈ 7.03 µM); in the experiment on Staphylococcus aureus [3], 2 µg/mL (≈ 3.52 µM).
As for `NCCSc1nccc(SC2=C(C(=O)O)N3C(=O)[C@@H](NC(=O)/C(=N\O)c4cccc(N)n4)[C@H]3SC2)n1`, the MIC came out at 16 µg/mL (≈ 29.2 µM) against Staphylococcus aureus [1], 16 µg/mL (≈ 29.2 µM) in the experiment on Staphylococcus aureus [2] and 8 µg/mL (≈ 14.6 µM) with Staphylococcus aureus [3].
Turning to `C[C@@H](O)[C@H]1C(=O)N2C(C(=O)O)=C(SCCNC=N)C[C@H]12` [IMIPENEM ANHYDROUS], the MIC with Staphylococcus aureus [1], against Staphylococcus aureus [2] and in the experiment on Staphylococcus aureus [3] was 32 µg/mL (≈ 107 µM) throughout.
